According to patent US8933079B2, “Pyridone and pyridazinone derivatives as anti-obesity agents” (Boehringer Ingelheim International GmbH, priority 2012, dated 2015):
pIC50: −log10 of the molar value.

Key:
[1] = molecular target: hMCH-1R (Homo sapiens (Human), UniProt Q99705); assay: MCH-1 receptor binding test (125I-MCH binding to hMCH-1R transfected cell membranes); settings: competition with 100 pM 125I-MCH, membranes of CHO/Galpha16 cells stably transfected with hMCH-1R
Method: Res Commun. […] After the incubation the reaction is filtered using a cell harvester through 0.5% PEI treated fibreglass filters (GF/B, Unifilter Packard). The membrane-bound radioactivity retained on the filter is then determined after the addition of scintillator substance (Packard Microscint 20) in a measuring device (TopCount of Packard). […] The analysis of the concentration binding curve is carried out on the assumption of one receptor binding site.

[2] = tested on: human hepatocytes; assay: Metabolic degradation in human hepatocytes (intrinsic clearance); format: in vitro ADME; settings: human hepatocyte suspension, 1 μM test compound, 5% human serum, 6 h
Method: Determination of Metabolic Degradation in Human Hepatocytes for Compounds of the Invention
The metabolic degradation of the test compound is determined in a hepatocyte suspension. Hepatocytes (typically cryopreserved) are incubated in an appropriate buffer system (e.g. Dulbecco's modified eagle medium plus 3.5 μg glucagon/500 mL, 2.5 mg insulin/500 mL and 3.75 mg/500 mL hydrocortison) containing 5% human serum.
Following a (typically) 30 min preincubation in an incubator (37° C., 10% CO2), 5 μl of test compound solution (80 μM; from 2 mM in DMSO stock solution diluted 1:25 with medium) are added into 395 μl hepatocyte suspension (cell density in the range 0.25-5 Mio cells/mL, typically 1 Mio cells/mL; final concentration of test compound 1 μM, final DMSO concentration 0.05%). The cells are incubated for six hours (incubator, orbital shaker) and samples (25 μl) are taken at 0, 0.5, 1, 2, 4 and 6 hours. Samples are transferred into acetonitrile and pelleted by centrifugation (5 min). The supernatant is transferred to a new 96-deepwell plate, evaporated under nitrogen and resuspended.
Decline of parent compound is analyzed by HPLC-MS/MS.
CLint is calculated as follows CL_[…]=Dose/AUC=(CO/CD)/(AUD+clast/k)×1000/60. C0: initial concentration in the incubation [μM], CD: cell density of vital cells [10e6 cells/mL], AUD: area under the data [μM×h], clast: concentration of last data point [μM], k: slope of the regression line for parent decline [h−1].

hMCH-1R, sequence (Q99705 whole entry): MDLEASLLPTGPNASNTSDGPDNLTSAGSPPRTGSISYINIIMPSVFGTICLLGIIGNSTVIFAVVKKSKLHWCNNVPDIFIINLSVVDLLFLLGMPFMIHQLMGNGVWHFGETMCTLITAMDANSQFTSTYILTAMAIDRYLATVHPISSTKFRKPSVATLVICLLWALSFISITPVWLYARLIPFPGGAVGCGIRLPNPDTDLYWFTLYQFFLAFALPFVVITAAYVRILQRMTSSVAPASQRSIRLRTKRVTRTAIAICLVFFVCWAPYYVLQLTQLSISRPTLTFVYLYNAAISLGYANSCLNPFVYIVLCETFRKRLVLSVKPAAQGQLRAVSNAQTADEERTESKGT

Structure (SMILES) | pIC50 [1] | CLint [2]
Cc1cc(CN(C)C)ccc1C(=O)Cn1ncc(OCc2ccc(Br)cn2)cc1=O [Example 8.3, 5-(5-Bromo-pyridin-2-ylmethoxy)-2-[2-(4-dimethylaminomethyl-2-methyl-phenyl)-2-oxo-ethyl]-2H-pyridazin-3-one] | 7.80 | 11.5 μL/min/10e6 cells
Cc1cc(CN(C)C)ccc1C(=O)Cn1ncc(OCc2ccc(F)cn2)cc1=O [Example 6.5] | 7.30 | 1.7 μL/min/10e6 cells
CN(C)Cc1ccc(C(=O)Cn2ncc(OCc3ccc(Br)cn3)cc2=O)cc1 [Example 12.2 in WO2009/103478, reference compound] | – | 57.6 μL/min/10e6 cells
CN(C)Cc1ccc(C(=O)Cn2ncc(OCc3ccc(F)cn3)cc2=O)cc1 [Example 33.5 in WO2008/22979, reference compound] | – | 10.0 μL/min/10e6 cells
CN(C)Cc1ccc(C(=O)Cn2ccc(OCc3ccc(Br)cn3)cc2=O)cc1 [Example 11.2 in WO2009/103478, reference compound] | – | 66.1 μL/min/10e6 cells
CN(C)Cc1ccc(C(=O)Cn2ccc(OCc3ccc(Cl)cn3)cc2=O)cc1 [Example 9.2 in WO2009/103478, reference compound] | – | 68.8 μL/min/10e6 cells
CN(C)Cc1ccc(C(=O)Cn2ccc(OCc3ccccc3)cc2=O)cc1 [Example 29.8 in WO2008/22979, reference compound] | – | 24.3 μL/min/10e6 cells
Cc1cc(CN2CCCC2)ccc1C(=O)Cn1ccc(OCc2ccc(Cl)cn2)cc1=O [Example 3.8, 4-(5-Chloro-pyridin-2-ylmethoxy)-1-[2-(2-methyl-4-pyrrolidin-1-ylmethyl-phenyl)-2-oxo-ethyl]-1H-pyridin-2-one] | 7.59 | –
Cc1cc(CN2CCC[C@H](O)C2)ccc1C(=O)Cn1ncc(OCc2ccc(Br)cn2)cc1=O [Example 8.4] | 7.62 | –
Cc1cc(CN2CCC(CO)CC2)ccc1C(=O)Cn1ccc(OCc2ccc(Cl)cn2)cc1=O [Example 3.12] | 7.47 | –
Cc1cc(CN2CCC[C@@H](O)C2)ccc1C(=O)Cn1ncc(OCc2ccccc2)cc1=O [Example 5.1, (R)-5-Benzyloxy-2-{2-[4-(3-hydroxy-piperidin-1-ylmethyl)-2-methyl-phenyl]-2-oxo-ethyl}-2H-pyridazin-3-one] | 7.85 | –
COc1ccc(COc2cnn(CC(=O)c3ccc(CN4CCCC4)cc3C)c(=O)c2)nc1 [Example 9.3, 5-(5-Methoxy-pyridin-2-ylmethoxy)-2-[2-(2-methyl-4-pyrrolidin-1-ylmethyl-phenyl)-2-oxo-ethyl]-2H-pyridazin-3-one] | 7.60 | –
Cc1cc(CN2CC[C@H](O)C2)ccc1C(=O)Cn1ncc(OCc2ccccc2)cc1=O [Example 5.5] | 7.96 | –
COc1ccc(COc2cnn(CC(=O)c3ccc(CN(C)C)cc3)c(=O)c2)nc1 [Example 9.1c, 2-[2-(4-Dimethylaminomethyl-phenyl)-2-oxo-ethyl]-5-(5-methoxy-pyridin-2-ylmethoxy)-2H-pyridazin-3-one, reference compound] | – | 27 μL/min/10e6 cells
Cc1cc(CN2CCN(C)CC2)ccc1C(=O)Cn1ccc(OCc2ccc(Br)cn2)cc1=O [Example 4.14] | 7.14 | –
Cc1cc(CN2CCCC[C@@H]2CO)ccc1C(=O)Cn1ncc(OCc2ccc(Br)cn2)cc1=O [Example 8.7, (R)-5-(5-Bromo-pyridin-2-ylmethoxy)-2-{2-[4-(2-hydroxymethyl-piperidin-1-ylmethyl)-2-methyl-phenyl]-2-oxo-ethyl}-2H-pyridazin-3-one] | 7.70 | –
Cc1cc(CN2CC(O)C2)ccc1C(=O)Cn1ncc(OCc2ccccc2)cc1=O [Example 5.7, 5-Benzyloxy-2-{2-[4-(3-hydroxy-azetidin-1-ylmethyl)-2-methyl-phenyl]-2-oxo-ethyl}-2H-pyridazin-3-one] | 8.00 | –
Cc1cc(CN2CCOCC2)ccc1C(=O)Cn1ccc(OCc2ccc(Br)cn2)cc1=O [Example 4.11] | 7.23 | –
CCNCc1ccc(C(=O)Cn2ncc(OCc3ccc(OC)cn3)cc2=O)c(C)c1 [Example 9.5, 2-[2-(4-Ethylaminomethyl-2-methyl-phenyl)-2-oxo-ethyl]-5-(5-methoxy-pyridin-2-ylmethoxy)-2H-pyridazin-3-one] | 7.62 | –
Cc1cc(CN2CC(O)C2)ccc1C(=O)Cn1ccc(OCc2ccc(Cl)cn2)cc1=O [Example 3.15, 4-(5-Chloro-pyridin-2-ylmethoxy)-1-{2-[4-(3-hydroxy-azetidin-1-ylmethyl)-2-methyl-phenyl]-2-oxo-ethyl}-1H-pyridin-2-one] | 7.51 | –

Structure (SMILES) | pIC50 [1] | CLint [2]
Cc1cc(CN(C)C)ccc1C(=O)Cn1ccc(OCc2ccc(F)cn2)cc1=O [Example 2.5] | 7.15 | –
CCNCc1ccc(C(=O)Cn2ccc(OCc3ccc(OC)cn3)cc2=O)c(C)c1 [Example 11.4] | 7.27 | –
Cc1cc(CN2CCCC[C@@H]2CO)ccc1C(=O)Cn1ncc(OCc2ccc(Cl)cn2)cc1=O [Example 7.13, (R)-5-(5-Chloro-pyridin-2-ylmethoxy)-2-{2-[4-(2-hydroxymethyl-piperidin-1-ylmethyl)-2-methyl-phenyl]-2-oxo-ethyl}-2H-pyridazin-3-one] | 7.46 | –
Cc1cc(CN2CCCC2)ccc1C(=O)Cn1ccc(OCc2ccc(F)cn2)cc1=O [Example 2.1, 4-(5-Fluoro-pyridin-2-ylmethoxy)-1-[2-(2-methyl-4-pyrrolidin-1-ylmethyl-phenyl)-2-oxo-ethyl]-1H-pyridin-2-one] | 7.17 | –
Cc1cc(CN2CC[C@@H](O)C2)ccc1C(=O)Cn1ncc(OCc2ccc(Br)cn2)cc1=O [Example 8.1, (R)-5-(5-Bromo-pyridin-2-ylmethoxy)-2-{2-[4-(3-hydroxy-pyrrolidin-1-ylmethyl)-2-methyl-phenyl]-2-oxo-ethyl}-2H-pyridazin-3-one] | 7.66 | –
CCNCc1ccc(C(=O)Cn2ccc(OCc3ccc(Br)cn3)cc2=O)c(C)c1 [Example 4.6, 4-(5-Bromo-pyridin-2-ylmethoxy)-1-[2-(4-ethylaminomethyl-2-methyl-phenyl)-2-oxo-ethyl]-1H-pyridin-2-one] | 7.30 | –
Cc1cc(CN(C)C)ccc1C(=O)Cn1ncc(OCc2ccc(Cl)cn2)cc1=O [Example 7.16, 5-(5-Chloro-pyridin-2-ylmethoxy)-2-[2-(4-dimethylaminomethyl-2-methyl-phenyl)-2-oxo-ethyl]-2H-pyridazin-3-one] | 7.62 | –
Cc1cc(CN2CC3CC(C2)C3O)ccc1C(=O)Cn1ccc(OCc2ccc(Cl)cn2)cc1=O (centres unmarked) [Example 3.16] | 7.72 | –
CCNCc1ccc(C(=O)Cn2ccc(OCc3ccccc3)cc2=O)c(C)c1 [Example 1.12, 4-Benzyloxy-1-[2-(4-ethylaminomethyl-2-methyl-phenyl)-2-oxo-ethyl]-1H-pyridin-2-one] | 7.68 | –
Cc1cc(CN2CCOCC2)ccc1C(=O)Cn1ccc(OCc2ccccc2)cc1=O [Example 1.4] | 7.40 | –
Cc1cc(CN2CCCCC2)ccc1C(=O)Cn1ccc(OCc2ccc(Br)cn2)cc1=O [Example 4.16] | 7.92 | –
CCNCc1ccc(C(=O)Cn2ncc(OCc3ccccc3)cc2=O)c(C)c1 [Example 5.6, 5-Benzyloxy-2-[2-(4-ethylaminomethyl-2-methyl-phenyl)-2-oxo-ethyl]-2H-pyridazin-3-one] | 8.00 | –
Cc1cc(CN2CCCC[C@@H]2CO)ccc1C(=O)Cn1ccc(OCc2ccccc2)cc1=O [Example 1.16] | 7.54 | –
Cc1cc(CN2CCC(C)(O)C2)ccc1C(=O)Cn1ncc(OCc2ccccc2)cc1=O (centres unmarked) [Example 5.14, 5-Benzyloxy-2-{2-[4-(3-hydroxy-3-methyl-pyrrolidin-1-ylmethyl)-2-methyl-phenyl]-2-oxo-ethyl}-2H-pyridazin-3-one] | 8.00 | –
Cc1cc(CN2CC[C@@H](O)C2)ccc1C(=O)Cn1ccc(OCc2ccc(Cl)cn2)cc1=O [Example 3.4, (R)-4-(5-Chloro-pyridin-2-ylmethoxy)-1-{2-[4-(3-hydroxy-pyrrolidin-1-ylmethyl)-2-methyl-phenyl]-2-oxo-ethyl}-1H-pyridin-2-one] | 7.42 | –
CN(C)Cc1ccc(C(=O)Cn2ncc(OCc3ccccc3)cc2=O)cc1 [Example 32.7 in WO2008/22979, reference compound] | – | 16.8 μL/min/10e6 cells
Cc1cc(CN2CC(O)C2)ccc1C(=O)Cn1ccc(OCc2ccccc2)cc1=O [Example 1.1, 4-Benzyloxy-1-{2-[4-(3-hydroxy-azetidin-1-ylmethyl)-2-methyl-phenyl]-2-oxo-ethyl}-1H-pyridin-2-one] | 7.70 | –
CCNCc1ccc(C(=O)Cn2ncc(OCc3ccc(Br)cn3)cc2=O)c(C)c1 [Example 8.8, 5-(5-Bromo-pyridin-2-ylmethoxy)-2-[2-(4-ethylaminomethyl-2-methyl-phenyl)-2-oxo-ethyl]-2H-pyridazin-3-one] | 7.77 | –
Cc1cc(CN2CCCCC2)ccc1C(=O)Cn1ncc(OCc2ccc(Cl)cn2)cc1=O [Example 7.5] | 7.80 | –
